From patent US5041441A, “Method of chemotherapy using 1-phenyl-2-decanoylamino-3-morpholino-1-propanol” (The Regents of the University of Michigan, priority 1988, dated 1991)
Marks after values point to notes of the source that are not given here.

What was measured:
[1] = test system: Ehrlich ascites tumor cells (EATC); test: Antitumor activity in mice inoculated i.p. with Ehrlich ascites tumor cells; format: in vivo; settings: for 50-day cure (mice) / Solid Tumors at 50 days (mice): 8 mice; for Acute, initial toxicity observation: C18 (stearoyl) homolog, 0.15 mmol/kg on day 1; for Normal at 60 days / Solid tumors at 60 days: L-threo isomer; for Weight Change after 10 days: mouse, in vivo
Procedure: Male mice of the ICR (Swiss Hsd) strain from Harlan--Sprague Dawley (Indianapolis, Ind.) were injected intraperitoneal with saline containing 2×10^6 Ehrlich ascites tumor cells (EATC) on day 0. […] Treatment began 24 hours later with intraperitoneal injections of saline or inhibitor, either as the acetate salt or as the hydrochloride salt. The inhibitor was dissolved in 40° C. saline and injected at 10 μl/g body weight. In the case of drugs that were difficult to dissolve, e.g. the hydrochlorides, a non-ionic, low toxicity detergent was included to emulsify the drug, making it suitable for injection. Two cages of mice were assigned to each control or experimental group and fed standard lab chow. In almost all cases, the mice were injected daily for a total of 10 doses.
The 1-tailed Student t-test for unpaired samples was used for statistical analysis.
The experimental procedure set forth above was again followed with homologs of PDMP made from fatty acids of 10 to 18 carbon atom length. The compounds were not resolved into D- and L-forms but the threo stereomers were used as the hydrochlorides. All samples were emulsified in Myrj 52 (15 mg/kg).

[2] = target: T1, glucosyltransferase (EATC enzyme) (Mus musculus, UniProt O88693); test: Glucosyltransferase assay, microsomes from EATC; format: biochemical
T1 construct: Microsomes from EATC (0.50 mg protein) required 20 μM PDMP to reduce the glucosyltransferase activity in half; endogenous in cells; host or cells: Ehrlich ascites tumor cells (EATC), microsomes
T1 sequence (O88693 1-394): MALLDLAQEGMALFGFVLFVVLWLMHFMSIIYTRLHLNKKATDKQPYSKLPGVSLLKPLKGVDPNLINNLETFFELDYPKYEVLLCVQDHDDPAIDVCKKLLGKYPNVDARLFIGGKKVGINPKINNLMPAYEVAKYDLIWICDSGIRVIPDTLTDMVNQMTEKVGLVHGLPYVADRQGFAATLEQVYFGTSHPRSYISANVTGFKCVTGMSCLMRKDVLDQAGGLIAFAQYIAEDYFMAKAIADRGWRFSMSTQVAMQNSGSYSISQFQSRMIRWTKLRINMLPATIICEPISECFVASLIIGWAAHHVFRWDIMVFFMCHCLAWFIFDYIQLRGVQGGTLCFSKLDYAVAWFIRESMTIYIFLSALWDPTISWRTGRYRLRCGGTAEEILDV
Procedure: Evidence that D-threo-PDMP acts to inhibit GlcCer biosynthesis was provided as follows from assay of glucosyltransferase. Microsomes as source of enzyme were prepared by highspeed centrifugation and stored at -70° C. before use. The incubations were at 37° C. for 30 minutes with microsomes, ATP, liposomal octanoyl sphingosine, UDP-[^3 H]glu, Mg^2+, and dithioerythritol. Microsomes from EATC (0.50 mg protein) required 20 μM PDMP to reduce the glucosyltransferase activity in half. The microsomes from normal liver (72 μg protein) required 5 μM D-threo-PDMP. While the EATC enzyme seems to be less sensitive to the inhibitor, the intraperitoneal concentration of inhibitor is initially very high.

Ehrlich ascites cells [3] = test: Growth of Ehrlich ascites cells in vivo (volume of packed cells); settings: for Volume of packed cells / Volume of packed cells, % of controls: treatment begun 3 days after EATC inoculation, 5 injections, killed 1 day later, 100 mg/kg
Procedure: A suspension of GlcCer was injected into one group of 10 mice inoculated 1 day earlier with EATC as before. Injectable suspensions of GlcCer and galactosylceramide (GalCer) were prepared by mechanical grinding in saline (10 mg/ml) and injected at a dosage of 100 mg/kg. In one experiment, the mice were killed 1 day after the last of eight daily injections and the ascites cells were flushed out of the abdomen with buffered saline and washed.
Treatments were begun 3 days after EATC inoculation. Only 5 injections were given and the mice were killed 1 day later.

Ehrlich ascites cells [4] = settings: mice bearing Ehrlich ascites carcinoma cells, injection of glucosylceramide (background); cited from earlier work
[5] = DL-threo hydrochloride in Myrj 52 emulsion, 0.3 mmol/kg, ten daily injections
[6] = DL-threo hydrochloride in Myrj 52 emulsion, C16 0.15 mmol/kg, six injections
[7] = DL-threo hydrochloride in Myrj 52 emulsion, C18 0.15 mmol/kg on day 1 and 0.075 mmol/kg the remaining 9 days

CCCCCCCCCC(=O)N[C@H](CN1CCOCC1)[C@H](O)c1ccccc1 (relative stereo) [compound 10, 1-Phenyl-2-Decanoylamino-3-Morpholino-1-Propanol]
50-day cure (mice) [1, 5]: 5
Solid Tumors at 50 days (mice) [1, 5]: 1
Mice that developed small solid tumors that were later resorbed ([1]; decanoyl group, 0.3 mmol/kg in Myrj emulsion): two
Long-term cure rate ([1]; dosage of 128 mg/kg, Myrj emulsion): 50%

CCCCCCCCCCCC(=O)N[C@H](CN1CCOCC1)[C@H](O)c1ccccc1 (relative stereo) [compound 12]
Body Weight Increase at the 10-day point [1, 5]: -0.1 g
50-day cure (mice) [1, 5]: 2
Solid Tumors at 50 days (mice) [1, 5]: 2

CCCCCCCCCCCCCC(=O)N[C@H](CN1CCOCC1)[C@H](O)c1ccccc1 (relative stereo) [compound 14]
Body Weight Increase at the 10-day point [1, 5]: 0.1 g
50-day cure (mice) [1, 5]: 1
Solid Tumors at 50 days (mice) [1, 5]: 4

CCCCCCCCCCCCCCCC(=O)N[C@H](CN1CCOCC1)[C@H](O)c1ccccc1 (relative stereo) [compound 16]
Body Weight Increase at the 10-day point [1, 6]: -1.1 g
Survival after 10 days [1, 6]: 5/8
50-day cure (mice) [1, 6]: 3
Solid Tumors at 50 days (mice) [1, 6]: 1
Toxicity observation ([1]; palmitoyl homolog, daily injections in Myrj 52): too toxic to be used more than six times

CCCCCCCCCCCCCCCCCC(=O)N[C@H](CN1CCOCC1)[C@H](O)c1ccccc1 (relative stereo) [compound 18]
Acute, initial toxicity observation [1]: high initial weight loss
Acute, initial toxicity observation ([1]; listed as C18 homolog): absence of an acute, initial toxicity reaction
Body Weight Increase at the 10-day point [1, 7]: 2.5 g
50-day cure (mice) [1, 7]: 6
Solid Tumors at 50 days (mice) [1, 7]: 0

CCCCCCCCCC(=O)N[C@@H](CN1CCOCC1)[C@@H](O)c1ccccc1 [L-threo-PDMP, 1-Phenyl-2-Decanoylamino-3-Morpholino-1-Propanol]
Inhibition of ceramide glucosyltransferase ([2]; general statement): ineffective
Inhibition of the EATC enzyme ([2]; microsomes from EATC): did not inhibit
Effectiveness in curing the tumors compared with the D-enantiomer ([1]; 60-day observation period, 75-150 mg/kg): more effective in curing the tumors than the D-enantiomer
Losses of animals during the initial 10 days of treatment ([1]; 75-150 mg/kg): no losses of animals
Ascites fluid in treated mice ([1]; 75-150 mg/kg, 10 days): At no time was ascites fluid visible
Normal at 60 days ([1]; 75 mg/kg, 10 days): 4 # of mice
Solid tumors at 60 days ([1]; 75 mg/kg, 10 days): 2 # of mice
Normal at 60 days ([1]; 100 mg/kg, 10 days): 4 # of mice
Solid tumors at 60 days ([1]; 100 mg/kg, 10 days): 3 # of mice
Normal at 60 days ([1]; 125 mg/kg, 10 days): 2 # of mice
Solid tumors at 60 days ([1]; 125 mg/kg, 10 days): 3 # of mice
Normal at 60 days ([1]; 150 mg/kg, 10 days): 5 # of mice
Solid tumors at 60 days ([1]; 150 mg/kg, 10 days): 3 # of mice
Mice in which disappearance of solid tumors was observed ([1]; at the higher dosages): two
Acute toxicity reactions of the mice ([1]; compared with the D-isomer): distinctly smaller than with the D-isomer
Weight Change after 10 days ([1]; 75 mg/kg): 3.2 g
Weight Change after 10 days ([1]; 100 mg/kg): 1.9 g
Weight Change after 10 days ([1]; 125 mg/kg): 0.8 g
Weight Change after 10 days ([1]; 150 mg/kg): -0.2 g

galactosylceramide [GalCer]
Stimulation of EATC growth (Ehrlich ascites cells [3]; Experiment 7, 100 mg/kg): no stimulation of EATC growth
Volume of packed cells (Ehrlich ascites cells [3]): 2.29 ± 1.21 ml/mouse
Volume of packed cells, % of controls (Ehrlich ascites cells [3]): 84 % of controls

glucosylceramide [GlcCer]
Packed, centrifuged ascites cells (mean value per mouse) (Ehrlich ascites cells [3]; EATC mice, eight daily injections from day 1, killed 1 day after the last, GlcCer 100 mg/kg, saline controls 3.07 ml): 4.68 mL
Increase of packed cells over saline-injected controls (Ehrlich ascites cells [3]; EATC mice, eight daily injections, GlcCer 100 mg/kg, p less than 0.05): 52%
Volume of packed cells (Ehrlich ascites cells [3]): 4.13 ± 0.63 ml/mouse
Volume of packed cells, % of controls (Ehrlich ascites cells [3]): 152 % of controls
Increase in the number of cancer cells (Ehrlich ascites cells [4]): greater than 50%
